Values of other authors in patent US20070203225A1, “METHOD OF INCREASING ENDOGENOUS ADIPONECTIN PRODUCTION AND LEPTIN PRODUCTION” (priority 2001, published 2007).

Columns and labels:
Conditions in all cases: metformin 1.0 mM with 0.16 nM insulin, n=18; cited from earlier work
[1] = test system: isolated rat adipocytes
[2] = test system: isolated rat adipocytes; remark: listed apart in the source
[3] = test system: isolated rat adipocytes; remark: listed apart in the source

SMILES: CN(C)C(=N)N=C(N)N [metformin]
- effect on glucose utilization (in words) [1]: increases
- effect on proportion of glucose metabolized to lactate (in words) [2]: increases
- effect on leptin secretion (in words) [3]: inhibits
